The text below walks through data of patent publication US7998965B2, “Glutamate aggrecanase inhibitors” (Wyeth LLC, priority 2005, dated 2011).

For test [1], the target named is T1, purified recombinant human Aggrecanase-2 (Ag2t-Phe628-Strep) (Homo sapiens, UniProt Q9UNA0).
T1 construct: the form used is denoted as Ag2t-Phe628-Strep (MW=41,737)
T1 sequence (Q9UNA0 262-628): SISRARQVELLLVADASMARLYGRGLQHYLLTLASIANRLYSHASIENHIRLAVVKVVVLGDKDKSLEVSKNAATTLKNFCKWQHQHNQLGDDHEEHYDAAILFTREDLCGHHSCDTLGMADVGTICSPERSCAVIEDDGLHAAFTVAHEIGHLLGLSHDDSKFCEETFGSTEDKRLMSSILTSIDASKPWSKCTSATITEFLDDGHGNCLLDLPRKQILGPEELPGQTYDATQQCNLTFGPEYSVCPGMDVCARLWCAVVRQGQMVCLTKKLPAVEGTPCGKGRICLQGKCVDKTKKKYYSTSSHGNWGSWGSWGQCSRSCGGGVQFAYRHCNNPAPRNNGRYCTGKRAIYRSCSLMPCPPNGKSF
The experiment in a line: In vitro fluorescence screen for Aggrecanase-2 inhibitors. Type of test: biochemical. To be noted: for IC50: read-out: Agg 2 IC50; for Ki: read-out: Ki Agg2.

Test [2] addresses T2, purified recombinant human Aggrecanase-1 (rAgg1) (Homo sapiens, UniProt O75173).
T2 sequence (O75173 213-837): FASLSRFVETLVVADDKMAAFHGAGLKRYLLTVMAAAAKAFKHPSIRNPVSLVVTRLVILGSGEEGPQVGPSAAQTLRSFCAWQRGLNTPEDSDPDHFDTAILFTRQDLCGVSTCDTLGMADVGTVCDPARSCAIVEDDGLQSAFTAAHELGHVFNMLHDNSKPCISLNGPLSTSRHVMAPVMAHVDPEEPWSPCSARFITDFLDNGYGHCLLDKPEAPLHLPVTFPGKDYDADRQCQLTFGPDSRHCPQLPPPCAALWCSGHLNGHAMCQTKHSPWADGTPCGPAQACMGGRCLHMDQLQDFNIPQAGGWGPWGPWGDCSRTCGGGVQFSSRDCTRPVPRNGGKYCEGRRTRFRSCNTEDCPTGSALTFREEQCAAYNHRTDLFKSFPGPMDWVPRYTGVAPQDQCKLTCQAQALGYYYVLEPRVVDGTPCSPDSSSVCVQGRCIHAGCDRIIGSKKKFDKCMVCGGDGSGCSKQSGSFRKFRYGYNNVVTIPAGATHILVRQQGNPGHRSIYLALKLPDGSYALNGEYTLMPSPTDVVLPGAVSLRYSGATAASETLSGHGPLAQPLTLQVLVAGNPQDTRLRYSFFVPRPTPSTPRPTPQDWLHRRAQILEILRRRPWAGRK
The test is described as follows: In vitro fluorescence screen for Aggrecanase-1 inhibitors. It is filed as biochemical. Also on record: Agg1 % at concentration: scale not given here. The following applies: for IC50: read-out: Agg1 IC50; for Ki: read-out: Ki Agg1.

Like-named read-outs stand apart in the source and are kept apart here.

Turning to `O=C(O)CC[C@H](NC(=O)c1ccc(Br)cc1)C(=O)NCC12CC3CC(CC(C3)C1)C2` [Example 18F, N-(1-adamantylmethyl)-N^2-(4-bromobenzoyl)-L-α-glutamine], the IC50 in test [1] (Table 2) and in test [2] (Table 2) was over 67000 nM in each case.

Consider `O=C(O)CC[C@H](NC(=O)c1ccc(C#Cc2ccccc2)cc1)C(=O)NCc1ccccc1` [Example 12G, N-benzyl-N^2-[4-(phenylethynyl)benzoyl]-L-α-glutamine], for which the IC50 in test [1] (Table 2) is 11700 nM; in test [2] (Table 2) it was over 25000 nM.

`Cc1cc(C)cc(-c2ccc(C(=O)N[C@@H](CCC(=O)O)C(=O)NCC34CC5CC(CC(C5)C3)C4)cc2)c1` [Example 17X, N-(1-adamantylmethyl)-N^2-[(3′,5′-dimethylbiphenyl-4-yl)carbonyl]-L-α-glutamine]: the IC50 is about 22000 nM in test [1] (Table 2) and 2000 nM in test [2] (Table 2).

Consider `CC(C)(Cc1ccc(Cl)cc1)NC(=O)[C@H](CCC(=O)O)NC(=O)c1ccc(-c2ccc(Cl)s2)cc1` [N-[2-(4-chlorophenyl)-1,1-dimethylethyl]-N^2-[4-(5-chloro-2-thienyl)benzoyl]-L-α-glutamine], for which, in test [1] (Table 3), the half-maximal inhibitory concentration (IC50) lay within 70 to 200 nM and the Ki was 51 nM. In test [2] (Table 3), the IC50 was under 30 nM and the Ki was found to be 5.4 nM.

In the case of `Cc1cccc(CNC(=O)[C@H](CCC(=O)O)NC(=O)c2ccc(-c3cccc(COc4cc(C(F)(F)F)cc(C(F)(F)F)c4)c3)cc2)c1` [Example 15S, N^2-[(3′-{[3,5-bis(trifluoromethyl)phenoxy]methyl}biphenyl-4-yl)carbonyl]-N-(3-methylbenzyl)-L-α-glutamine], the “Agg 2 % at concentration” value in test [1] (Table 3, at 33000 (nM)) amounted to 41%. The “Agg1 % at concentration” value in test [2] (Table 3, at 1850 (nM)) came to 30%.

For the compound `CC(C)(Cc1ccc(Cl)cc1)NC(=O)[C@H](CCC(=O)O)NC(=O)c1ccc(-c2ccc(F)cc2F)cc1` [Example 8AAAAAAA, N-[2-(4-chlorophenyl)-1,1-dimethylethyl]-N^2-[(2′,4′-difluorobiphenyl-4-yl)carbonyl]-L-α-glutamine], the results for the IC50 in test [1] (Table 3) and in test [2] (Table 3) were 550 nM and 80 nM, respectively.

For the compound `CC(C)(Cc1ccc(Cl)cc1)NC(=O)[C@H](CCC(=O)O)NC(=O)c1ccc(-c2cccnc2)s1` [Example 8JJJJJJJJ, N-[2-(4-chlorophenyl)-1,1-dimethylethyl]-N^2-[(5-pyridin-3-yl-2-thienyl)carbonyl]-L-α-glutamine], the half-inhibitory concentration (IC50) in test [1] (Table 3) was 800 to 2500 nM; in test [2] (Table 3), under 30 nM.

As to `COc1cccc(-c2ccc(C(=O)N[C@@H](CCC(=O)O)C(=O)NC(C)(C)Cc3ccccc3)s2)c1` [N-(1,1-dimethyl-2-phenylethyl)-N^2-{[5-(3-methoxyphenyl)-2-thienyl]carbonyl}-L-α-glutamine], the figures for the IC50 in test [1] (Table 3) and in test [2] (Table 3) were 70 to 200 nM and under 30 nM, respectively. Further, the Ki in test [1] (Table 3) is 151 nM; in test [2] (Table 3), under 3 nM.

In the case of `CC(C)(Cc1ccc(F)cc1)NC(=O)[C@H](CCC(=O)O)NC(=O)c1ccc(-c2ccc(F)cc2)cc1` [N^2-[(4′-fluorobiphenyl-4-yl)carbonyl]-N-[2-(4-fluorophenyl)-1,1-dimethylethyl]-L-α-glutamine], the results for the half-inhibitory concentration (IC50) in test [1] (Table 3) and in test [2] (Table 3) were 83 nM and under 30 nM, respectively. The Ki in test [1] (Table 3) worked out at 75 nM; in test [2] (Table 3), 6.9 nM.

For `C[C@@H](NC(=O)[C@H](CCC(=O)O)NC(=O)c1ccc(-c2ccccc2)cc1)c1ccc(F)cc1` [Example 8TTTTT, N^2-(biphenyl-4-ylcarbonyl)-N^1-[(1R)-1-(4-fluorophenyl)ethyl]-L-α-glutamine], the figures for the IC50 in test [1] (Table 2) and in test [2] (Table 2) were 2010 nM and 389 nM, respectively.

Consider `O=C(O)CC[C@H](NC(=O)c1ccc(-c2cccc(CO)c2)cc1)C(=O)NCc1ccccc1` [Example 17JJ, N-benzyl-N^2-{[3′-(hydroxymethyl)biphenyl-4-yl]carbonyl}-L-α-glutamine], for which the figures for the concentration for half-maximal inhibition (IC50) in test [1] (Table 2) and in test [2] (Table 2) were 19500 nM and 2400 nM, respectively.

On to `CC(C)c1cccc(-c2ccc(C(=O)N[C@@H](CCC(=O)O)C(=O)NC(C)(C)Cc3ccc(F)cc3)cc2)c1` [Example 17FF, N-[2-(4-fluorophenyl)-1,1-dimethylethyl]-N^2-[(3′-isopropylbiphenyl-4-yl)carbonyl]-L-α-glutamine], for which the figures for the IC50 in test [1] (Table 2) and in test [2] (Table 2) were 13900 nM and 690 nM, respectively.

In the case of `O=C(O)CC[C@H](NC(=O)c1ccc(-c2ccccc2)cc1)C(=O)NCCc1ccc(Br)cc1` [Example 8KKK, N^2-(biphenyl-4-ylcarbonyl)-N^1-[2-(4-bromophenyl)ethyl]-L-α-glutamine], the 50% inhibitory concentration (IC50) in test [1] (Table 1) amounted to 2000 nM; in test [2] (Table 1), 120 nM.

Turning to `O=C(O)CC[C@H](NC(=O)c1ccc(-c2ccccc2)cc1)C(=O)NCC12CC3CC(CC(C3)C1)C2` [Example 8AAAAAA, N-(1-adamantylmethyl)-N^2-(biphenyl-4-ylcarbonyl)-L-α-glutamine], the IC50 in test [1] (Table 2) turned out to be 1760 nM; in test [2] (Table 2), 534 nM.

In the case of `COc1cc(CNC(=O)[C@H](CCC(=O)O)NC(=O)c2ccc(-c3cccc(OCc4ccccc4)c3)cc2)cc(OC)c1OC` [Example 15K, N^2-{[3′-(benzyloxy)biphenyl-4-yl]carbonyl}-N-(3,4,5-trimethoxybenzyl)-L-α-glutamine], the figures for the 50% inhibitory concentration (IC50) in test [1] (Table 3) and in test [2] (Table 3) were 379 nM and under 30 nM, respectively.

In the case of `CC(C)(Cc1ccccc1)NC(=O)[C@H](CCC(=O)O)NC(=O)c1ccc(-c2ccc(COc3cc(C(C)(C)C)cc(C(C)(C)C)c3)cc2)cc1` [Example 15Z, N^2-({4′-[(3,5-di-tert-butylphenoxy)methyl]biphenyl-4-yl}carbonyl)-N-(1,1-dimethyl-2-phenylethyl)-L-α-glutamine], the results for the IC50 in test [1] (Table 2) and in test [2] (Table 2) were 6040 nM and 1400 nM, respectively.

For `CN(C)C(=O)c1cccc(-c2ccc(C(=O)N[C@@H](CCC(=O)O)C(=O)NCC34CC5CC(CC(C5)C3)C4)cc2)c1` [Example 17W, N-(1-adamantylmethyl)-N^2-({3′-[(dimethylamino)carbonyl]biphenyl-4-yl}carbonyl)-L-α-glutamine], the values for the IC50 in test [1] (Table 2) and in test [2] (Table 2) were about 67000 nM and over 25000 nM, respectively.

As to `O=C(O)CC[C@H](NC(=O)c1ccc(Oc2ccccc2)cc1)C(=O)NC12CC3CC(CC(C3)C1)C2` [Example 8ZZZZ, N^1-1-adamantyl-N^2-(4-phenoxybenzoyl)-L-α-glutamine], the 50% inhibitory concentration (IC50) in test [1] (Table 2) is over 22000 nM; in test [2] (Table 2), over 17000 nM.

Turning to `COc1ccc(CCN(C)C(=O)[C@H](CCC(=O)O)NC(=O)c2ccc3c(c2)Cc2ccccc2-3)cc1OC` [Example 8IIIIII, N-[2-(3,4-dimethoxyphenyl)ethyl]-N^2-(9H-fluoren-2-ylcarbonyl)-N-methyl-L-α-glutamine], the 50% inhibitory concentration (IC50) in test [1] (Table 2) is 11900 nM; in test [2] (Table 2), 2900 nM.

As for `CC(C)(Cc1ccc(Cl)cc1)NC(=O)[C@H](CCC(=O)O)NC(=O)c1ccc(-c2ccc(Br)s2)cc1` [N^2-[4-(5-bromo-2-thienyl)benzoyl]-N-[2-(4-chlorophenyl)-1,1-dimethylethyl]-L-α-glutamine], in test [1] (Table 3), the 50% inhibitory concentration (IC50) was 30 to 100 nM and the Ki came to 69 nM. Besides, in test [2] (Table 3), the half-inhibitory concentration (IC50) was under 30 nM and the Ki turned out to be 8.3 nM.

`CC(C)(Cc1ccc(Cl)cc1)NC(=O)[C@H](CCC(=O)O)NC(=O)c1ccc(-c2ccc(Cl)s2)nc1` [N-[2-(4-chlorophenyl)-1,1-dimethylethyl]-N^2-{[6-(5-chloro-2-thienyl)pyridin-3-yl]carbonyl}-L-α-glutamine]: the half-inhibitory concentration (IC50) in test [1] (Table 3) lay within 100 to 300 nM; in test [2] (Table 3), 20 to 70 nM. The Ki in test [1] (Table 3) stood at 526 nM; in test [2] (Table 3), 40.6 nM.
